pIC50: −log10 of the molar value.

In patent US12564638B2 (SHANGHAITECH UNIVERSITY, priority 2019, dated 2026) one finds IC50 data, which are given here for 17 compounds.

The subject of the first test is HCC827 cells (EGFR Exon19 del, non-small cell lung cancer cells). The test can be described thus: Cell viability assay (WST/CCK8), HCC827 cells. Format: cell-based. The following applies: Homo sapiens, HCC827, 72 h, Table 4, gefitinib and sapitinib-based compounds; HCC827 (Exon19 Del); 72 hours; WST; read-out: IC50 (half inhibitory concentration). From the text:
The cell lines with abnormal EGFR expression used are as follows: • HCC827 cells (EGFR Exon19 del, non-small cell lung cancer cells); • PC9 cells (EGFR Exon 19 del, non-small cell lung cancer cells); • PC9BracA1 (EGFR Exon 19 del+T790M, non-small cell lung cancer cells) • H1975 (EGFR Exon T790M+L858R mutation, non-small cell lung cancer cell line) • BT474 cells (HER2 positive breast cancer cells)
All of the half inhibitory concentrations (IC50) of these compounds of the present invention were determined with WST reagent from Fuyuan Biotec Company. The specific experiment procedures are as follows: Cancer cells were planted in 96-well-plate at the density of 3 000 cells per well with 100 μL RPMI1640 completed culture medium. In the next day, compounds with indicated concentrations were added to the cells, DMSO was used as the negative control and the EGFR TKIs were used to treat cells as the positive groups. After 72 hours drug treatment, cell viability was measured by using the WST reagent following the instructions.
The cells were treated with the gradient concentration of these compounds (the maximum concentration: 10 μM; 3-fold dilution ratio, 10 concentration gradients) for 72 hours and then incubated with the WST (CCK8) reagent to determine the cell viability.
On to `COc1cc2ncnc(Nc3ccc(F)c(Cl)c3)c2cc1OCCCN1CCNCC1` [Gefitinib derivative A (SIAIS184161), N-(3-chloro-4-fluorophenyl)-7-methoxy-6-(3-(piperazin-1-yl)propoxy)quinazolin-4-amine], for which the pIC50 was 8.00.

In the case of `COc1cc2ncnc(Nc3ccc(F)c(Cl)c3)c2cc1OC1CCN(CC(=O)O)CC1` [Gefitinib derivative C (SIAIS293033), 2-(4-((4-((3-chloro-4-fluorophenyl)amino)-7-methoxyquinazolin-6-yl)oxy)piperidin-1-yl)acetic acid], the pIC50 was 6.24. `COc1cc2ncnc(Nc3ccc(F)c(Cl)c3)c2cc1OCCCN1CCN(C(=O)CSc2cccc3c2C(=O)N(C2CCC(=O)NC2=O)C3=O)CC1` (centres unmarked) [SIAIS184164, 4-((2-(4-(3-((4-((3-chloro-4-fluorophenyl)amino)-7-methoxyquinazolin-6-yl)oxy)propyl)piperazin-1-yl)-2-oxoethyl)thio)-2-(2,6-dioxopiperidin-3-yl)isoindoline-1,3-dione]: the pIC50 was 7.33. Take `COc1cc2ncnc(Nc3ccc(F)c(Cl)c3)c2cc1OCCCN1CCN(C(=O)CCCSc2cccc3c2C(=O)N(C2CCC(=O)NC2=O)C3=O)CC1` (centres unmarked) [SIAIS184165, 4-((4-(4-(3-((4-((3-chloro-4-fluorophenyl)amino)-7-methoxyquinazolin-6-yl)oxy)propyl)piperazin-1-yl)-4-oxobutyl)thio)-2-(2,6-dioxopiperidin-3-yl)isoindoline-1,3-dione]: the pIC50 was 7.24. `COc1cc2ncnc(Nc3ccc(F)c(Cl)c3)c2cc1OCCCN1CCN(C(=O)COCCOCCOCCOCCOCCSc2cccc3c2C(=O)N(C2CCC(=O)NC2=O)C3=O)CC1` (centres unmarked) [SIAIS184170, 4-((17-(4-(3-((4-((3-chloro-4-fluorophenyl)amino)-7-methoxyquinazolin-6-yl)oxy)propyl)piperazin-1-yl)-17-oxo-3,6,9,12,15-pentaoxaheptadecyl)thio)-2-(2,6-dioxopiperidin-3-yl)isoindoline-1,3-dione]: the pIC50 is 6.73. With `COc1cc2ncnc(Nc3ccc(F)c(Cl)c3)c2cc1OCCCN1CCN(C(=O)CSc2cccc3c2CN(C2CCC(=O)NC2=O)C3=O)CC1` (centres unmarked) [SIAIS184184, 3-(4-((2-(4-(3-((4-((3-chloro-4-fluorophenyl)amino)-7-methoxyquinazolin-6-yl)oxy)propyl)piperazin-1-yl)-2-oxoethyl)thio)-1-oxoisoindolin-2-yl)piperidine-2,6-dione], the pIC50 was 7.00. Same read-out and setting: then `COc1cc2ncnc(Nc3ccc(F)c(Cl)c3)c2cc1OCCCN1CCN(C(=O)CCCSc2cccc3c2CN(C2CCC(=O)NC2=O)C3=O)CC1` (centres unmarked) [SIAIS184185, 3-(4-((4-(4-(3-((4-((3-chloro-4-fluorophenyl)amino)-7-methoxyquinazolin-6-yl)oxy)propyl)piperazin-1-yl)-4-oxobutyl)thio)-1-oxoisoindolin-2-yl)piperidine-2,6-dione], with 6.95; and `COc1cc2ncnc(Nc3ccc(F)c(Cl)c3)c2cc1OCCCN1CCN(C(=O)CCCCCSc2cccc3c2CN(C2CCC(=O)NC2=O)C3=O)CC1` (centres unmarked) [SIAIS184186, 3-(4-((6-(4-(3-((4-((3-chloro-4-fluorophenyl)amino)-7-methoxyquinazolin-6-yl)oxy)propyl)piperazin-1-yl)-6-oxohexyl)thio)-1-oxoisoindolin-2-yl)piperidine-2,6-dione], with 6.91.

The same test, now with this note: Homo sapiens, HCC827, 72 h, Table 5, afatinib-based compounds; HCC827 (Exon19 Del); 72 hours; WST; read-out: IC50 (half inhibitory concentration).
Turning to `O=C1CCC(N2C(=O)c3cccc(SCC(=O)Nc4cc5c(Nc6ccc(F)c(Cl)c6)ncnc5cc4O[C@H]4CCOC4)c3C2=O)C(=O)N1` (stereo partly drawn) [SIAIS184093, N-(4-((3-chloro-4-fluorophenyl)amino)-7-(((S)-tetrahydrofuran-3-yl)oxy)quinazolin-6-yl)-2-((2-(2,6-dioxopiperidin-3-yl)-1,3-dioxoisoindolin-4-yl)thio)acetamide], the pIC50 is 7.06. For `O=C1CCC(N2C(=O)c3cccc(SCCCC(=O)Nc4cc5c(Nc6ccc(F)c(Cl)c6)ncnc5cc4O[C@H]4CCOC4)c3C2=O)C(=O)N1` (stereo partly drawn) [SIAIS184094, N-(4-((3-chloro-4-fluorophenyl)amino)-7-(((S)-tetrahydrofuran-3-yl)oxy)quinazolin-6-yl)-4-((2-(2,6-dioxopiperidin-3-yl)-1,3-dioxoisoindolin-4-yl)thio)butanamide], the pIC50 was 6.98. The same measure, in the same setting: then `O=C1CCC(N2C(=O)c3cccc(SCCCCCC(=O)Nc4cc5c(Nc6ccc(F)c(Cl)c6)ncnc5cc4O[C@H]4CCOC4)c3C2=O)C(=O)N1` (stereo partly drawn) [SIAIS184095, N-(4-((3-chloro-4-fluorophenyl)amino)-7-(((S)-tetrahydrofuran-3-yl)oxy)quinazolin-6-yl)-6-((2-(2,6-dioxopiperidin-3-yl)-1,3-dioxoisoindolin-4-yl)thio)hexanamide], with 6.76; and `O=C1CCC(N2C(=O)c3cccc(SCCOCC(=O)Nc4cc5c(Nc6ccc(F)c(Cl)c6)ncnc5cc4O[C@H]4CCOC4)c3C2=O)C(=O)N1` (stereo partly drawn) [SIAIS184152, N-(4-((3-chloro-4-fluorophenyl)amino)-7-(((S)-tetrahydrofuran-3-yl)oxy)quinazolin-6-yl)-2-(2-((2-(2,6-dioxopiperidin-3-yl)-1,3-dioxoisoindolin-4-yl)thio)ethoxy)acetamide], with 6.88.

Consider `O=C1CCC(N2C(=O)c3cccc(SCCOCCOCC(=O)Nc4cc5c(Nc6ccc(F)c(Cl)c6)ncnc5cc4O[C@H]4CCOC4)c3C2=O)C(=O)N1` (stereo partly drawn) [SIAIS184153, N-(4-((3-chloro-4-fluorophenyl)amino)-7-(((S)-tetrahydrofuran-3-yl)oxy)quinazolin-6-yl)-2-(2-(2-((2-(2,6-dioxopiperidin-3-yl)-1,3-dioxoisoindolin-4-yl)thio)ethoxy)ethoxy)acetamide], for which the pIC50 was 6.50.

For `O=C1CCC(N2C(=O)c3cccc(SCCOCCOCCOCC(=O)Nc4cc5c(Nc6ccc(F)c(Cl)c6)ncnc5cc4O[C@H]4CCOC4)c3C2=O)C(=O)N1` (stereo partly drawn) [SIAIS184154, N-(4-((3-chloro-4-fluorophenyl)amino)-7-(((S)-tetrahydrofuran-3-yl)oxy)quinazolin-6-yl)-2-(2-(2-(2-((2-(2,6-dioxopiperidin-3-yl)-1,3-dioxoisoindolin-4-yl)thio)ethoxy)ethoxy)ethoxy)acetamide], the pIC50 is 6.60.

On to `O=C1CCC(N2C(=O)c3cccc(SCCOCCOCCOCCOCC(=O)Nc4cc5c(Nc6ccc(F)c(Cl)c6)ncnc5cc4O[C@H]4CCOC4)c3C2=O)C(=O)N1` (stereo partly drawn) [SIAIS184155, N-(4-((3-chloro-4-fluorophenyl)amino)-7-(((S)-tetrahydrofuran-3-yl)oxy)quinazolin-6-yl)-14-((2-(2,6-dioxopiperidin-3-yl)-1,3-dioxoisoindolin-4-yl)thio)-3,6,9,12-tetraoxatetradecan-1-amide], for which the pIC50 is 7.10.

Regarding `O=C1CCC(N2C(=O)c3cccc(SCCOCCOCCOCCOCCOCC(=O)Nc4cc5c(Nc6ccc(F)c(Cl)c6)ncnc5cc4O[C@H]4CCOC4)c3C2=O)C(=O)N1` (stereo partly drawn) [SIAIS184156, N-(4-((3-chloro-4-fluorophenyl)amino)-7-(((S)-tetrahydrofuran-3-yl)oxy)quinazolin-6-yl)-17-((2-(2,6-dioxopiperidin-3-yl)-1,3-dioxoisoindolin-4-yl)thio)-3,6,9,12,15-pentaoxaheptadecan-1-amide], the pIC50 is 6.01.

Still in this test, the particulars now being: Homo sapiens, HCC827, 72 h, Table 6, canertinib-based compounds; HCC827 (Exon19 Del); 72 hours; WST; read-out: IC50 (half inhibitory concentration).
As to `C=CC(=O)Nc1cc2c(Nc3ccc(F)c(Cl)c3)ncnc2cc1OCCCN1CCNCC1` [Caneritinib derivative A (SIAIS293064), N-(4-((3-chloro-4-fluorophenyl)amino)-7-(3-(piperazin-1-yl)propoxy)quinazolin-6-yl)acrylamide], the pIC50 is 8.35.
